US8476414B2, “Substrates and internal standards for mass spectrometry detection” (PerkinElmer Health Sciences, Inc., priority 2006, dated 2013)

Columns and labels:
[1] = molecular target: T1, acid α-galactosidase A (GLA) (Homo sapiens, UniProt P06280); experiment: Dried blood spot enzyme assay with Fabry substrate, tandem mass spectrometry detection of the enzymatic product; format: biochemical; conditions: with dried blood sample, 15 to 24 hours at 37° Celsius, sodium acetate pH 4.6
T1 construct: from tissue
T1 sequence (P06280 32-429): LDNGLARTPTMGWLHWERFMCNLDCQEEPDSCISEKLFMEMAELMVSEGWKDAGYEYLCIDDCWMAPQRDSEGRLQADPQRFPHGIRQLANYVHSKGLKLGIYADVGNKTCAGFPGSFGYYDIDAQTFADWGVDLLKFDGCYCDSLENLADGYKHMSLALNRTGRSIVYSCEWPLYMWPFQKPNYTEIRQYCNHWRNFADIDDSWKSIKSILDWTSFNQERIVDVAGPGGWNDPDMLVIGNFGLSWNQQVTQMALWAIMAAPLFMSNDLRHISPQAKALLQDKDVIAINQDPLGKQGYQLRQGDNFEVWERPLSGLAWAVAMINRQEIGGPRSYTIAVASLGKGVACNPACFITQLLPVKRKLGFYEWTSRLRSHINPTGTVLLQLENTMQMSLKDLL
Protocol: (§1) For each sample, a disk of 3 mm diameter is punched from the areas of dried blood on a filter paper into a micro-centrifuge tube or a well of a 96-well microtiter plate. The blood disk is then incubated directly with an assay solution containing a substrate directed to the Fabry disease. The assay solution is prepared by mixing a 10 mM solution of substrate (4-(Hexadecanoyl-DL-carnitineamido)phenyl-α-D-galactopyranoside), a 1 mM solution of the internal standard for the enzymatic product (4-(Hexadecanoyl-DL-carnitine[C16-d3]amido)phenol), a 1 M solution of Acetylgalactosamine, and a 0.4 M solution of sodium acetate pH 4.6 buffer in a 8:1:3:38 ratio. The assay mixture containing the blood disk is incubated for 15 to 24 hours at 37° Celsius with orbital shaking (150 rpm) in a thermostatic air shaker. After the incubation period, an aliquot of pure methanol (without the use of chloroform) is added to each tube or well to terminate the enzymatic reaction. Before going into the mass spectrometer, an aliquot of the incubated aliquot is diluted in pure methanol. For the mass spectrometry analysis, the electrospray source is operated in positive mode, and the ions are detected in the parent ion of 176 scan mode. The amount of enzymatic product is calculated from the ion abundance ratio of the product to the internal standard minus that of a blank.

[2] = Non-enzymatic hydrolysis of substrate in blank sample not containing blood, processed as the dried blood spots; format: physicochemical; conditions: blank without blood, same assay solution and processing
Protocol: as §1, with “After the incubation period, an aliquot of pure methanol (without the use of chloroform) is added to each tube or well to terminate the enzymatic reaction. Before going into the mass spectrometer, an aliquot of the incubated aliquot is diluted in pure methanol.” left out
The […] chain for this particular example was chosen to contain 10 carbons and thus decanoyl-carnitine was used in the synthesis of the substrate. […] The final sample solutions were analyzed on a Waters Quattro Micro ESI-triple quadrupole tandem mass spectrometer using a parent ion of 176 scan. […]

acid α-glucosidase (GAA) = experiment: Dried blood spot enzyme assay with Pompe substrate, tandem mass spectrometry detection of the enzymatic product; format: biochemical, human; conditions: pH 3.98
Protocol: An enzymatic reaction using a substrate directed to Pompe disease and the mass spectrometry analysis thereafter is carried out using the method specified in Example 1 with the following exceptions that sodium citrate was used as buffer. The assay solution for Example 2 was prepared by mixing a buffer solution (0.2 M sodium citrate/sodium phosphate, pH 3.98), a solution of 8 mM Acarbose, a solution of 10 mM substrate (4-Decanoyl-DL-carnitineamido)phenyl-α-D-glucopyranoside), and a solution of 1.0 mM internal standard (4-Decanoyl-DL-carnitine[C10-d3]amido)phenol) in a 93:1:4:2 ratio. The rest of the procedure is as indicated in Example 1.
In addition a blank filter paper sample not containing blood was processed following the same procedure as the dried blood spots. The same assay solution containing buffers, substrates, inhibitors and internal standards was used for all three samples. Therefore, all samples received the same concentration of reagents. The final sample solutions were analyzed on a Waters Quattro Micro ESI-triple quadrupole tandem mass spectrometer using a parent ion of 176 scan. The predominant peaks shown in the spectra are those corresponding to the intact substrate, internal standard and corresponding enzymatic product. […]

Row | SMILES | enzymatic product of the substrate detected by MS/MS [1] | non-enzymatic substrate hydrolysis (product found in blank) [2] | conversion of substrate to product (abundance of product relative to internal standard) (acid α-glucosidase (GAA); dried blood spot of confirmed Pompe positive newborn) | conversion of substrate to product (abundance of product relative to internal standard) (acid α-glucosidase (GAA); dried blood spot of healthy newborn)
1 | CCCCCCCCCCCCCCCC(=O)OC(CC(=O)Nc1ccc(O[C@H]2O[C@H](CO)[C@H](O)[C@H](O)[C@H]2O)cc1)C[N+](C)(C)C (mixture of isomers) [substrate directed to Fabry disease, 4-(Hexadecanoyl-DL-carnitineamido)phenyl-α-D-galactopyranoside] | significant amount | minimal amount | – | –
2 | CCCCCCCCCC(=O)OC(CC(=O)Nc1ccc(O[C@H]2O[C@H](CO)[C@@H](O)[C@H](O)[C@H]2O)cc1)C[N+](C)(C)C (mixture of isomers) [substrate directed to Pompe disease, 4-(Decanoyl-DL-carnitineamido)phenyl-α-D-glucopyranoside] | – | negligible | no noticeable substrate to product conversion | highly noticeable
